# Like-named read-outs stand apart in the source and are kept apart here.
# Tests used:
# [1] = tested on: influenza A virus (A/PR/8/34); assay: microbe, parasite or virus in culture; type: cell-based
# [2] = tested on: A/PR/8/34 influenza virus; assay: microbe, parasite or virus in culture; type: cell-based
# [3] = Influenza A virus, PR/8, MDCK, MDCK cells infected with A/PR/8/34, cell protection (CPE), read-out: IC50 (mean all)
# [4] = Influenza A virus, PR/8, MDCK, MDCK cells infected with A/PR/8/34, bDNA viral RNA, read-out: EC50 (mean all)
# [5] = mean all, MDCK cells infected with A/PR/8/34, cell protection (CPE), read-out: IC50
# [6] = mean all, bDNA viral RNA in MDCK cells infected with A/PR/8/34, read-out: EC50
# [7] = Influenza A virus, PR/8, MDCK, mean all, survival of A/PR/8/34 infected MDCK cells (CPE assay), read-out: IC50
# [8] = Influenza A virus, PR/8, mean all, replication of A/PR/8/34 influenza virus (bDNA assay), read-out: EC50
# [9] = CPE assay, A/PR/8/34 infected MDCK cells, class symbols, read-out: IC50 (mean all)
# [10] = bDNA assay, A/PR/8/34 influenza virus replication in MDCK cells, class symbols, read-out: EC50 (mean all)
smiles,measurement,setting,value
"O=C(Cc1ccccc1)N1CCC[C@H](CNc2nc(-c3c[nH]c4ncc(Cl)cc34)ncc2F)C1 [Compound 56, (R)-1-(3-((2-(5-chloro-1H-pyrrolo[2,3-b]pyridin-3-yl)-5-fluoropyrimidin-4-ylamino)methyl)piperidin-1-yl)-2-phenylethanone]",IC50,[1]; [3],< 5 µM
same,EC50,[2]; [4],< 5 µM
"COCC(=O)N1CCC[C@@H](CNc2nc(-c3c[nH]c4ncc(Cl)cc34)ncc2F)C1 [Compound 45, (S)-1-(3-((2-(5-chloro-1H-pyrrolo[2,3-b]pyridin-3-yl)-5-fluoropyrimidin-4-ylamino)methyl)piperidin-1-yl)-2-methoxyethanone]",IC50,[1]; [3],< 5 µM
same,EC50,[2]; [4],< 5 µM
COC(=O)c1cnc2[nH]cc(-c3ncc(F)c(NC4CCCN(CC(N)=O)C4)n3)c2c1 (stereo not shown) [Compound 675],IC50,[1]; [5],> 10 µM
same,EC50,[2]; [6],> 3.3 µM
"CN1C[C@@]2(CCC[C@H](Nc3nc(-c4c[nH]c5ncc(Cl)cc45)ncc3F)C2)OC1=O [Compound 971, (5S,7S)-7-(2-(5-chloro-1H-pyrrolo[2,3-b]pyridin-3-yl)-5-fluoropyrimidin-4-ylamino)-3-methyl-1-oxa-3-azaspiro[4.5]decan-2-one]",IC50,[1]; [7],< 5 µM
same,EC50,[2]; [8],< 5 µM
"CC(C)(C)C(=O)N1CCC[C@H](CNc2nc(-c3c[nH]c4ncc(Cl)cc34)ncc2F)C1 [Compound 105, (R)-1-(3-((2-(5-chloro-1H-pyrrolo[2,3-b]pyridin-3-yl)-5-fluoropyrimidin-4-ylamino)methyl)piperidin-1-yl)-2,2-dimethylpropan-1-one]",IC50,[1]; [3],< 5 µM
same,EC50,[2]; [4],< 5 µM
"O=C(O)CC1(CC(=O)N2CCC[C@H](CNc3nc(-c4c[nH]c5ncc(Cl)cc45)ncc3F)C2)CCCC1 [Compound 81, (R)-2-(1-(2-(3-((2-(5-chloro-1H-pyrrolo[2,3-b]pyridin-3-yl)-5-fluoropyrimidin-4-ylamino)methyl)piperidin-1-yl)-2-oxoethyl)cyclopentyl)ethanoic acid]",IC50,[1]; [3],< 5 µM
same,EC50,[2]; [4],< 5 µM
"CC(C)=CC(=O)N1CCC[C@H](CNc2nc(-c3c[nH]c4ncc(Cl)cc34)ncc2F)C1 [Compound 57, (R)-1-(3-((2-(5-chloro-1H-pyrrolo[2,3-b]pyridin-3-yl)-5-fluoropyrimidin-4-ylamino)methyl)piperidin-1-yl)-3-methylbut-2-en-1-one]",IC50,"[1]; Influenza A virus, PR/8, MDCK, read-out: IC50 (mean all)",< 5 µM
same,EC50,"[2]; Influenza A virus, PR/8, MDCK, read-out: EC50 (mean all)",< 5 µM
"NC(=O)N1CCCC(Nc2nc(-c3c[nH]c4ncc(Cl)cc34)ncc2F)CC1 (stereo not shown) [Compound 509, 4-(2-(5-chloro-1H-pyrrolo[2,3-b]pyridin-3-yl)-5-fluoropyrimidin-4-ylamino)azepane-1-carboxamide]",IC50,"[1]; Influenza A virus, PR/8, MDCK, MDCK cells infected with A/PR/8/34, survival of infected cells, class symbols, read-out: IC50 (mean all)",< 5 µM
same,EC50,"[2]; Influenza A virus, PR/8, MDCK, MDCK cells infected with A/PR/8/34, replication of influenza virus (viral RNA, bDNA), class symbols, read-out: EC50 (mean all)",< 5 µM
CC(=O)N1CCC[C@H](Nc2nc(-c3c[nH]c4ncc(Cl)cc34)ncc2F)C1 [Compound 434],IC50,"[1]; Influenza A virus, PR/8, MDCK, mean all, A/PR/8/34 infected MDCK cells, CPE assay, read-out: IC50",< 5 µM
same,EC50,"[2]; Influenza A virus, PR/8, MDCK, mean all, A/PR/8/34 influenza virus in MDCK cells, bDNA assay, read-out: EC50",< 5 µM
"CCNC(=O)OC1CCCC(Nc2nc(-c3c[nH]c4ncc(Cl)cc34)ncc2F)C1 (single isomer, unassigned) [Compound 609]",IC50,[1]; [9],< 5 µM
same,EC50,[2]; [10],< 5 µM
O=C(O)[C@H]1C(Nc2nc(-c3c[nH]c4ncc(Cl)cc34)ncc2F)[C@H]2CC[C@@H]1C2 (mixture of isomers) [Compound 947],IC50,[1]; [7],< 5 µM
same,EC50,[2]; [8],< 5 µM
"Cc1cccc(S(=O)(=O)N2CCC[C@H](CNc3nc(-c4c[nH]c5ncc(Cl)cc45)ncc3F)C2)c1 [Compound 66, (R)-2-(5-chloro-1H-pyrrolo[2,3-b]pyridin-3-yl)-5-fluoro-N-((1-(m-tolylsulfonyl)piperidin-3-yl)methyl)pyrimidin-4-amine]",IC50,[1]; [3],< 5 µM
same,EC50,[2]; [4],< 5 µM
Cc1ccc(S(=O)(=O)n2cc(-c3ncc(F)c(N[C@H]4CCCC(C)(O)C4)n3)c3cc(Cl)cnc32)cc1 (stereo partly shown) [Compound 655],IC50,[1]; [9],< 5 µM
same,EC50,[2]; [10],< 5 µM
CCOC(=O)NC1CCCC(Nc2nc(-c3c[nH]c4ncc(Cl)cc34)ncc2F)C1 (stereo not shown) [Compound 700],IC50,[1]; [5],< 5 µM
same,EC50,[2]; [6],< 5 µM

# From patent publication US8829007B2 (priority 2009, dated 2014)
